Assay results taken from patent publication US11136291B2, “Antifungal compounds and uses thereof” (Dana-Farber Cancer Institute, Inc., priority 2016, dated 2021).
≈ marks a conversion by molar mass, not a printed value.

Columns and labels:
Candida glabrata DSY562 = assay: Broth dilution MIC; conditions: Nakaseomyces glabratus
Procedure: (§1) Antifungal susceptibility testing was carried out using broth dilution assays which examined effects of two-fold dilutions of compounds on cellular growth. The minimum inhibitory concentration (MIC) was defined as the drug concentration at which the optical density was equal to or decreased more than 50% from that of the drug-free culture.

Candida glabrata DSY565 = assay: Broth dilution MIC; conditions: Nakaseomyces glabratus
Procedure: as §1

Candida albicans SC5314 = assay: Broth dilution MIC
Procedure: as §1

Candida albicans DSY2621 = assay: Broth dilution MIC
Procedure: as §1

Candida krusei DSY471 = assay: Broth dilution MIC; conditions: Pichia kudriavzevii, ATCC6258
Procedure: as §1

[1] = tested on: Candida tropicalis DSY472; assay: Broth dilution MIC; conditions: ATCC75
Procedure: as §1

[2] = tested on: Candida parapsilosis DSY473; assay: Broth dilution MIC; conditions: ATCC22019
Procedure: as §1

[3] = tested on: Saccharomyces cerevisiae DSY2094; assay: Broth dilution MIC
Procedure: as §1

[4] = tested on: PDRE-dependent luciferase gene transcription; type: cell-based, Saccharomyces cerevisiae; conditions: 40 μM ketoconazole; for Luciferase activity (5 μM + keto) (% DMSO + keto): 5 μM compound; for Luciferase activity (50 μM + keto) (% DMSO + keto): 50 μM compound
[5] = tested on: C. glabrata adherence to CHO-Lec2 cells; assay: Yeast adherence to epithelial CHO-Lec2 cells; conditions: PDR1^L280F mutant, 30 μM iKIX1 or 40 μM ketoconazole
CgGal11A KIX domain = target: T1, CgGal11A KIX domain (Candida glabrata, UniProt Q6FRS9); assay: Fluorescence polarization (FP) binding/competition assay, CgPdr1 AD30 with CgGal11A KIX; conditions: compared with iKIX1
T1 construct: other: compared with iKIX1; other: GST-CgGal11A KIX 3 μM, 30 nM FITC-CgPdr1 AD30; Kd of CgPdr1 AD30 for CgGal11A KIX domain; other: FP titration, 30 nM FITC-CgPdr1 AD30; Kd of the CgPdr1 AD for the CgGal11A KIX domain; apparent Ki; fused on or other part: N-terminal His6-GST tag
T1 sequence (Q6FRS9 whole entry, looked up, the tested form may be a part): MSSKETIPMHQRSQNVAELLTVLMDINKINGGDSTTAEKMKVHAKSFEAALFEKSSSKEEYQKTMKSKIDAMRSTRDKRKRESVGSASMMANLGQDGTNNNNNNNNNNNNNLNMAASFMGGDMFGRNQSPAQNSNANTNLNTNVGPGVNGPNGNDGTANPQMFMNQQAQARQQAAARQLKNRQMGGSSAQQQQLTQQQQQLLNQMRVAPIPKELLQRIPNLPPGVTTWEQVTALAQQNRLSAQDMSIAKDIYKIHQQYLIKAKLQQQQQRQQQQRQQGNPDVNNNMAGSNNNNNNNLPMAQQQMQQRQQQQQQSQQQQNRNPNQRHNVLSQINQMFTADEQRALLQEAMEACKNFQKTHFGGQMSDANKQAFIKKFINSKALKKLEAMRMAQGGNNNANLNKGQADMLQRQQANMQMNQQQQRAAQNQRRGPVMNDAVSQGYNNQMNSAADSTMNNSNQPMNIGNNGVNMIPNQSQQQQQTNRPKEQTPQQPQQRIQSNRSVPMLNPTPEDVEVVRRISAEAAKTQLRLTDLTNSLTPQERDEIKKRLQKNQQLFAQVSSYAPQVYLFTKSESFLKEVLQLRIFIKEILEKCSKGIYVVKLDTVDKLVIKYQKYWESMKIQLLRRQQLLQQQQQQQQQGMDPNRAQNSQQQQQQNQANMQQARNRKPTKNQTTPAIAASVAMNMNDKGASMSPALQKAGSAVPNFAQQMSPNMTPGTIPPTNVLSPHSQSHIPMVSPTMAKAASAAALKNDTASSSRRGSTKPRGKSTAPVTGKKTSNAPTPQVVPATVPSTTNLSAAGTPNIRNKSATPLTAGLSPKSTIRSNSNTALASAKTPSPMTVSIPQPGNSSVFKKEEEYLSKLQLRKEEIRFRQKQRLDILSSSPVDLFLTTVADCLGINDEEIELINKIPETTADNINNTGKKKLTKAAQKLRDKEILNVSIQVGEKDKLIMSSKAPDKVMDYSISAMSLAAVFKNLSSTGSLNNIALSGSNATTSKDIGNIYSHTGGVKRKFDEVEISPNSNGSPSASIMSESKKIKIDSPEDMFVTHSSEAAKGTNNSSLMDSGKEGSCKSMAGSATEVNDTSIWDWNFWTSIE
Procedure: A fluorescein-tagged 30 amino acid C-terminal activation domain of CgPdr1 (FITC-[…] (SEQ ID NO: 1)) CgPdr1 AD30 was purchased as a synthetic peptide from Pepide2.0. The CgGal11A KIX domain was expressed as a His6-GST fusion protein and purified by affinity chromatography with Ni-NTA resin (Qiagen) and size exclusion chromatography (Sephadex 75, Pharmacia). […] For small molecule screening, fluorescein-CgPdr1 AD30 was held at a concentration of 30 nM and the GST-tagged CgGal11A KIX was at a concentration of 1 μM (above the Kd). The screen was carried out in duplicate and the volume in each well was 25 μL.
To measure the dissociation constant (Kd) of CgPdr1 AD30, FITC labeled CgPdr1 AD30 was held at a concentration of 30 nM and the GST-tagged CgGal11A KIX was prepared with concentrations ranging from 0 to 300 μM. The IC50 for iKIX-1 binding was measured with GST-tagged CgGal11A KIX held at a constant 3 μM concentration, iKIX-1 was titrated from 0 to 1000 μM and 30 nM FITC-labeled CgPdr1 AD30 was added subsequently with an HP D300 digital dispenser (Tecan Group. Maennerdorf, Switzerland). All experiments were carried out in duplicate and the s.d. is reported at each point on the plot.
The FP titration curve of the CgPdr1 AD30 was fitted to GraphPad Prisms (La Jolla, Calif., USA) One site-total binding equation (equation 1). […]

[6] = tested on: CgCDR1 transcription (CgPdr1 target); assay: Transcription assay, quantitative real-time PCR of CgPdr1 target genes; type: cell-based, Candida glabrata
[7] = tested on: C. glabrata CgPDR1 wild-type and gain-of-function mutant strains; assay: Spot plating on gradient plates with azole; type: cell-based, Candida glabrata
[8] = tested on: C. glabrata PDR1 wild-type or PDR1^L280F strains; assay: Galleria mellonella survival assay; type: in vivo; conditions: […]
C. glabrata [9] = assay: Mouse disseminated fungal burden model; type: in vivo; conditions: mouse, in vivo
C. glabrata [10] = type: in vivo, mouse; conditions: single agent 100 mg/kg/day i.p.

N#CC1(C(=O)NNC(=S)Nc2ccc(Cl)c(Cl)c2)CCCCC1 [DFCI-1]
MIC (Candida glabrata DSY562): 6.25 µM (≈ 2.32 µg/mL)
MIC (Candida glabrata DSY565): 6.25 µM (≈ 2.32 µg/mL)
MIC (Candida albicans SC5314): 6.25 µM (≈ 2.32 µg/mL)
MIC (Candida albicans DSY2621): 12.5 µM (≈ 4.64 µg/mL)
MIC (Candida krusei DSY471): 3.12 µM (≈ 1.16 µg/mL)
MIC [1]: 6.25 µM (≈ 2.32 µg/mL)
MIC [2]: 12.5 µM (≈ 4.64 µg/mL)
MIC [3]: 6.25 µM (≈ 2.32 µg/mL)

N#CCC(=O)NNC(=S)Nc1ccc(Cl)c(F)c1 [Compound A03, N-(4-Chloro-3-fluorophenyl)-2-(2-cyanoacetyl)hydrazinecarbothoamide]
MIC (Candida glabrata DSY562): 12.5 µM (≈ 3.58 µg/mL)
MIC (Candida glabrata DSY565): 25 µM (≈ 7.17 µg/mL)
MIC (Candida albicans SC5314): 25 µM (≈ 7.17 µg/mL)
MIC (Candida albicans DSY2621): 25 µM (≈ 7.17 µg/mL)
MIC (Candida krusei DSY471): 12.5 µM (≈ 3.58 µg/mL)
MIC [1]: 12.5 µM (≈ 3.58 µg/mL)
MIC [2]: 50 µM (≈ 14.3 µg/mL)
MIC [3]: 12.5 µM (≈ 3.58 µg/mL)

N#CCC(=O)NNC(=S)Nc1ccc(C(F)(F)F)c(Cl)c1 [drawing 47]
Luciferase activity (5 μM + keto) (% DMSO + keto) [4]: 40 % DMSO + keto
Luciferase activity (50 μM + keto) (% DMSO + keto) [4]: 21 % DMSO + keto

CC(=O)N1CCN(c2ccc(OCC3COC(Cn4ccnc4)(c4ccc(Cl)cc4Cl)O3)cc2)CC1 (stereo not drawn) [ketoconazole, reference compound]
relative adherence to epithelial cells [5]: reduce adherence
relative adherence to epithelial cells ([5]; listed as Ketoconazole): reduced relative adherence to levels comparable to a PDR1 wild-type strain

N#CCC(=O)NNC(=S)Nc1cc(Cl)cc(Cl)c1 [drawing 48]
Luciferase activity (5 μM + keto) (% DMSO + keto) [4]: 45 % DMSO + keto
Luciferase activity (50 μM + keto) (% DMSO + keto) [4]: 25 % DMSO + keto

N#CCC(=O)NNC(=S)Nc1cc(Cl)cc(C(F)(F)F)c1 [drawing 49]
Luciferase activity (5 μM + keto) (% DMSO + keto) [4]: 77 % DMSO + keto
Luciferase activity (50 μM + keto) (% DMSO + keto) [4]: 28 % DMSO + keto

N#CCC(=O)NNC(=S)Nc1cc(Cl)cc(Cl)c1 [Compound A16]
MIC (Candida glabrata DSY562): 3.12 µM (≈ 0.947 µg/mL)
MIC (Candida glabrata DSY565): 6.25 µM (≈ 1.89 µg/mL)
MIC (Candida albicans SC5314): 6.25 µM (≈ 1.89 µg/mL)
MIC (Candida albicans DSY2621): 6.25 µM (≈ 1.89 µg/mL)
MIC (Candida krusei DSY471): 3.25 µM (≈ 0.985 µg/mL)
MIC [1]: 3.25 µM (≈ 0.985 µg/mL)
MIC [2]: 12.5 µM (≈ 3.79 µg/mL)
MIC [3]: 3.12 µM (≈ 0.947 µg/mL)

N#CCC(=O)NNC(=S)Nc1ccc(Cl)c(F)c1 [drawing 46]
Luciferase activity (5 μM + keto) (% DMSO + keto) [4]: 54 % DMSO + keto
Luciferase activity (50 μM + keto) (% DMSO + keto) [4]: 30 % DMSO + keto

N#CCC(=O)NNC(=S)Nc1cc(Cl)cc(C(F)(F)F)c1 [Compound A52-8]
MIC (Candida glabrata DSY562): 3.12 µM (≈ 1.05 µg/mL)
MIC (Candida glabrata DSY565): 6.25 µM (≈ 2.1 µg/mL)
MIC (Candida albicans SC5314): 3.12 µM (≈ 1.05 µg/mL)
MIC (Candida albicans DSY2621): 3.12 µM (≈ 1.05 µg/mL)
MIC (Candida krusei DSY471): 3.12 µM (≈ 1.05 µg/mL)
MIC [1]: 3.12 µM (≈ 1.05 µg/mL)
MIC [2]: 12.5 µM (≈ 4.21 µg/mL)
MIC [3]: 3.12 µM (≈ 1.05 µg/mL)

N#CC1(C(=O)NNC(=S)Nc2ccc(Cl)c(Cl)c2)CCCCC1 [drawing 51]
Luciferase activity (5 μM + keto) (% DMSO + keto) [4]: 53 % DMSO + keto
Luciferase activity (50 μM + keto) (% DMSO + keto) [4]: 14 % DMSO + keto

N#CC1(C(=O)NNC(=S)Nc2ccc(Cl)c(Cl)c2)CC1 [Compound A18, 2-(1-Cyanocyclopropanecarbonyl)-N-(3,4-dichlorophenyl)hydrazinecarbothioamide]
MIC (Candida glabrata DSY562): 6.25 µM (≈ 2.06 µg/mL)
MIC (Candida glabrata DSY565): 12.5 µM (≈ 4.12 µg/mL)
MIC (Candida albicans SC5314): 6.25 µM (≈ 2.06 µg/mL)
MIC (Candida albicans DSY2621): 6.25 µM (≈ 2.06 µg/mL)
MIC (Candida krusei DSY471): 6.25 µM (≈ 2.06 µg/mL)
MIC [1]: 12.5 µM (≈ 4.12 µg/mL)
MIC [2]: 25 µM (≈ 8.23 µg/mL)
MIC [3]: 12.5 µM (≈ 4.12 µg/mL)

N#CCC(=O)NNC(=S)NCc1ccccc1 [Compound A02, reference compound]
IC50 in the FP assay (in words) (CgGal11A KIX domain): increases the IC50
ketoconazole-induced luciferase activity (in words) [4]: abolishes activity
ketoconazole-induced CgPdr1 target gene (CgCDR1) transcription (in words) ([6]; CgPDR1 wild-type strain (SFY114), pre-treatment then 40 μM ketoconazole): abolishes activity
synergistic C. glabrata cell growth inhibition with azole antifungal agents [7]: abolishes activity
MIC (Candida glabrata DSY562): > 100 µM
MIC (Candida glabrata DSY565): > 100 µM
MIC (Candida albicans SC5314): > 100 µM
MIC (Candida albicans DSY2621): > 100 µM
MIC (Candida krusei DSY471): > 100 µM
MIC [1]: > 100 µM
MIC [2]: > 100 µM
MIC [3]: > 100 µM

N#CC1(C(=O)NNC(=S)Nc2ccc(Cl)c(Cl)c2)CC1 [drawing 45]
Luciferase activity (5 μM + keto) (% DMSO + keto) [4]: 62 % DMSO + keto
Luciferase activity (50 μM + keto) (% DMSO + keto) [4]: 25 % DMSO + keto
CgCDR1 qRT-PCR (30 μM in PDR1 WT) (% DMSO + keto) ([6]; 30 μM compound, PDR1 WT, ketoconazole induced): 5 % DMSO + keto

N#CCC(=O)NNC(=S)Nc1ccc(C(F)(F)F)c(Cl)c1 [Compound A07, N-(3-Chloro-4-(trifluoromethyl)phenyl)-2-(2-cyanoacetyl) hydrazinecarbothioamide]
MIC (Candida glabrata DSY562): 3.12 µM (≈ 1.05 µg/mL)
MIC (Candida glabrata DSY565): 3.12 µM (≈ 1.05 µg/mL)
MIC (Candida albicans SC5314): 3.25 µM (≈ 1.09 µg/mL)
MIC (Candida albicans DSY2621): 3.25 µM (≈ 1.09 µg/mL)
MIC (Candida krusei DSY471): 6.25 µM (≈ 2.1 µg/mL)
MIC [1]: 3.25 µM (≈ 1.09 µg/mL)
MIC [2]: 6.25 µM (≈ 2.1 µg/mL)
MIC [3]: 3.12 µM (≈ 1.05 µg/mL)

COc1cc(NC(=S)NNC(=O)CC#N)cc(Cl)c1Cl
Luciferase activity (5 μM + keto) (% DMSO + keto) [4]: 52 % DMSO + keto
Luciferase activity (50 μM + keto) (% DMSO + keto) [4]: 26 % DMSO + keto

N#CC(C(=O)NNC(=S)Nc1ccc(Cl)c(Cl)c1)c1ccccc1 (stereo not drawn)
Luciferase activity (5 μM + keto) (% DMSO + keto) [4]: 86 % DMSO + keto
Luciferase activity (50 μM + keto) (% DMSO + keto) [4]: 38 % DMSO + keto

OC(Cn1cncn1)(Cn1cncn1)c1ccc(F)cc1F [fluconazole, reference compound]
survival of G. mellonella larvae ([8]; fluconazole 50 mg/kg alone): sensitive to fluconazole alone
survival of G. mellonella larvae ([8]; single agent (fluconazole 50 mg/kg or iKIX1 25 mg/kg) vs vehicle): did not significantly increase survival
tissue fungal burden (C. glabrata [9]; 25 mg/kg): poorly reduced tissue burden
tissue fungal burden in the kidney and spleen (C. glabrata [9]; 100 mg/kg): significantly reduced tissue fungal burden
fungal load in bladder and kidney (C. glabrata [10]): significantly reduces fungal burden in the bladder and kidney
